These results are taken from US5250542A, “Peripherally selective piperidine carboxylate opioid antagonists” (Eli Lilly and Company, priority 1992, dated 1993).

One assay deals with T1, opioid receptor (Mus musculus, UniProt P42866).
T1 construct: Five CF-1 male mice (Charles River, Portage, Mich.); from tissue; host or cells: living CF-1 male mice (in vivo test; endogenous receptor)
The experiment in a line: mouse writhing analgesis test: block of morphine-induced analgesia. Type of assay: in vivo, CF-1 male mice. Particulars: dose of antagonist that reduced the inhibition of writhing produced by 1.25 mg/kg morphine sulfate to 50%; subcutaneous, 20 min before acetic acid. Details: unit not given here. The essentials:
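Male CF-1 mice (~20 g, fasted overnight, n=5) dosed subcutaneously 20 min before i.p. 0.6% acetic acid; writhes counted for 10 min starting 5 min post-injection. Antagonism measured as blockade of morphine-induced inhibition of writhing, percent versus vehicle controls; ED50 defined as 50% writhing inhibition.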
On the technique in general: An intraperitoneal irritant provokes the stretching counted in writhing tests.

The target of a further assay is T2, mu receptor (Rattus norvegicus, UniProt P33535).
T2 construct: rat whole brain minus cerebellum for mu was homogenized; from tissue; host or cells: brain of male Sprague Dawley rats, whole brain minus cerebellum, homogenate fraction
The experiment in a line: opioid receptor binding assay, [3H] NAL (tritiated naloxone), mu receptor. Details: species or system rat (Male Sprague Dawley), brain minus cerebellum. In outline:
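Displacement of [3H]naloxone was measured on rat whole brain minus cerebellum membranes, preincubated 20 min and incubated 20 min at 37° C, with filtration separating bound ligand. Ki was derived from IC50 and ligand KD. Percent displacement was also recorded at 10 nM and 100 nM test compound.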

The target of assay [1] is T3, peripheral opioid receptors (Mus musculus, UniProt P42866).
T3 construct: Mice maintained (6 mice/cage) on 0.01M saccharin water with 1 g/1 morphine sulfate; from tissue; host or cells: living morphine-maintained mice (in vivo test; endogenous receptor)
Put plainly: precipitated diarrhea in morphine-maintained mice (peripheral opioid activity) and comparison with the writhing test. Particulars: for Ratio (AD50 mouse writhing test / ED50 mouse diarrhea test): higher ratio = greater relative antagonism of peripheral opioid receptors; for ED50: mouse, 0.5 h, morphine-maintained mice, antagonist subcutaneous or oral, 30 min observation. The class given is in vivo. The essentials:
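Morphine-dependent mice (1 g/l morphine sulfate in drinking water ≥10 days, withdrawn 45 min before dosing) received antagonist subcutaneously or orally, 5 mice/dose. Diarrhea (and jumping) were scored over 30 min and doses lowered to find the diarrhea threshold. Peripheral selectivity was taken as writhing AD50 divided by diarrhea ED50.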

Setting [2] is: 20 min, read-out: % displacement at 10 nM, 10 nM test compound, [3H] naloxone 0.5 nM.
Where [3] appears, read: 20 min, read-out: % displacement at 100 nM.
The mark [4] stands for this setting: 20 min, read-out: % displacement at 10 nM.
Setting [5] is: 20 min, read-out: % displacement at 100 nM, 100 nM test compound, [3H] naloxone 0.5 nM.

Structures can show the parent of a compound that is named as a salt. Where two headings read alike, the source gives them in different places.

T3 sequence (P42866 whole entry): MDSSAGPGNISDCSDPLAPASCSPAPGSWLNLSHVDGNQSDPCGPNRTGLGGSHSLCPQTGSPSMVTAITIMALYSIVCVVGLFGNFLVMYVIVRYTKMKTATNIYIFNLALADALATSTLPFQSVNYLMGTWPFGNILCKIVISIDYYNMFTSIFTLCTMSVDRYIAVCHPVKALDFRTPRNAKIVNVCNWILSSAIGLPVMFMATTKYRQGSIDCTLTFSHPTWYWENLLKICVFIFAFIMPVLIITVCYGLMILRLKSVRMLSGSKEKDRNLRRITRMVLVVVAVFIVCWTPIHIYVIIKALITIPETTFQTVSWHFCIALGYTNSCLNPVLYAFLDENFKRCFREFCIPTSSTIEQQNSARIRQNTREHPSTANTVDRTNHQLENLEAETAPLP
T1 sequence (P42866 whole entry): as above
T2 sequence (P33535 whole entry): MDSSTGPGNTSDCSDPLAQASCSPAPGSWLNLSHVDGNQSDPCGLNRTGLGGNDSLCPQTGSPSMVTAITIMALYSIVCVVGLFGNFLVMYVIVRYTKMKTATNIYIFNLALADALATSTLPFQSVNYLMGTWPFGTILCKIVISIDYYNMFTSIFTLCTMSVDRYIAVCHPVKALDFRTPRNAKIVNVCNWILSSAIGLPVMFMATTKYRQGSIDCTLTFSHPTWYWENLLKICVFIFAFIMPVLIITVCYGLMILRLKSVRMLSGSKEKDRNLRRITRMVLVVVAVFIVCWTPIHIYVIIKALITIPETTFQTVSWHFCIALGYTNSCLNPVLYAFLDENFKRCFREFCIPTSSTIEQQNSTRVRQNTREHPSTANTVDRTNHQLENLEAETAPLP

The molecule `CC(C)COC(=O)CNC(=O)C(Cc1ccccc1)CN1CC[C@@](C)(c2cccc(O)c2)[C@@H](C)C1` (stereo partly shown) [Example 54, 2-[2-(phenylmethyl)-1-oxo-3-4-(3-hydroxyphenyl)-3,4-dimethyl-1-piperidinyl]propyl]amino]-ethanoic acid 2-methylpropyl ester monohydrochloride] displayed an AD50 on opioid receptor of 23. Also, at mu receptor (setting [2]), the inhibition at 0.01 µM came to 78%. At mu receptor (setting [3]), the inhibition at 0.1 µM was found to be 98%. Further, the inhibitory constant (Ki) – broadly, a dissociation constant, usually derived from enzyme kinetics or from competition with a known ligand – at mu receptor ([3H] naloxone 0.5 nM, pH 7.4, 37° C., 20 min) came to 2.27 nM. Also, in assay [1], the “Ratio (AD50 mouse writhing test / ED50 mouse diarrhea test)” value came out at 1150 and the median effective dose (ED50) (in general, the midpoint of the dose-response relation) is 0.02 mg/kg.
The molecule `C[C@H]1CN(CC(Cc2ccccc2)C(=O)NCC(=O)OCc2ccccc2)CC[C@@]1(C)c1cccc(O)c1` (stereo partly shown) [Example 55, 2-[[2-(phenylmethyl)-1-oxo-3-[4-(3-hydroxyphenyl)3,4-dimethyl-1-piperidinyl]propyl]amino]-ethanoic acid phenylmethyl ester hydrochloride] displayed an AD50 at opioid receptor of 7.5. For the same molecule, the inhibition at 0.01 µM on mu receptor (setting [4]) was 83%. Further, at mu receptor (setting [3]), the inhibition at 0.1 µM was determined as 97%. In assay [1], the “Ratio (AD50 mouse writhing test / ED50 mouse diarrhea test)” value was 63 and the ED50 amounted to 0.12 mg/kg.
At opioid receptor, `C[C@H]1CN(CC(Cc2ccccc2)C(=O)NCCC(=O)OCc2ccccc2)CC[C@@]1(C)c1cccc(O)c1` (stereo partly shown) [Example 56, hydrochloride] registered an AD50 of 40. Besides, affinity on mu receptor was put at a Ki of 0.49 nM. Further, the inhibition at 0.01 µM at mu receptor (setting [2]) is 97%. For the same molecule, at mu receptor (setting [3]), the inhibition at 0.1 µM was 98%. In addition, in assay [1], the “Ratio (AD50 mouse writhing test / ED50 mouse diarrhea test)” value is given as 667 and the ED50 worked out at 0.06 mg/kg.
With `C[C@H]1CN(CC(Cc2ccccc2)C(=O)NCCC(=O)O)CC[C@@]1(C)c1cccc(O)c1` (stereo partly shown) [Example 57, monohydrate], the AD50 at opioid receptor is reported as > 40. The Ki at mu receptor came out at 0.5 nM. In addition, the inhibition at 0.01 µM at mu receptor (setting [4]) was found to be 92%. Further, the inhibition at 0.1 µM on mu receptor (setting [3]) was found to be 98%. Further, in assay [1], the “Ratio (AD50 mouse writhing test / ED50 mouse diarrhea test)” value is reported as > 400 and the 50% effective dose (ED50) was determined as 0.1 mg/kg.
`CNC(=O)CCNC(=O)C(Cc1ccccc1)CN1CC[C@@](C)(c2cccc(O)c2)[C@@H](C)C1` (stereo partly shown) [Example 59, N-(methyl)-3-[[3-[4-(3-hydroxyphenyl)-3,4-dimethyl-1-piperidinyl]-2-(phenylmethyl)-1-oxopropyl]amino]propanamide monohydrochloride] had an AD50 on opioid receptor of 5.9. The same molecule had a Ki on mu receptor of 4.64 nM. The inhibition at 0.01 µM on mu receptor (setting [2]) is 88%. Further, the inhibition at 0.1 µM on mu receptor (setting [5]) was found to be 100%. Besides, in assay [1], the “Ratio (AD50 mouse writhing test / ED50 mouse diarrhea test)” value came to 11 and the 50% effect level (ED50) was put at a dose of 0.54 mg/kg.
For `CCNC(=O)CCNC(=O)C(Cc1ccccc1)CN1CC[C@@](C)(c2cccc(O)c2)[C@@H](C)C1` (stereo partly shown) [Example 60, N-(ethyl)-3-[[3-[4-(3-hydroxyphenyl)-3,4-dimethyl-1-piperidinyl]-2-(phenylmethyl)-1-oxopropyl]amino]propanamide monohydrochloride], the AD50 at opioid receptor is on record as 11.2. For the same molecule, the Ki on mu receptor is 1.89 nM. In addition, the inhibition at 0.01 µM on mu receptor (setting [2]) is 100%. For the same molecule, on mu receptor (setting [5]), the inhibition at 0.1 µM is 100%. Moreover, in assay [1], the “Ratio (AD50 mouse writhing test / ED50 mouse diarrhea test)” value was determined as 112 and the median effective dose (ED50) worked out at 0.1 mg/kg.
Molecule `CNC(=O)CCCNC(=O)C(Cc1ccccc1)CN1CC[C@@](C)(c2cccc(O)c2)[C@@H](C)C1` (stereo partly shown) [Example 62, N-(methyl)-4-[[3-]4-(3-hydroxyphenyl)-3,4-dimethyl-1-piperidinyl]-2-(phenylmethyl)-1-oxopropyl]amino]butanamide monohydrochloride monohydrate] showed an AD50 on opioid receptor of 18.3. Besides, the Ki at mu receptor turned out to be 1.18 nM. The inhibition at 0.01 µM at mu receptor (setting [2]) came to 89%. Moreover, the inhibition at 0.1 µM on mu receptor (setting [3]) amounted to 98%. In assay [1], the “Ratio (AD50 mouse writhing test / ED50 mouse diarrhea test)” value is recorded as 122 and it took a dose of 0.15 mg/kg to reach the 50% effect level (ED50).
`C[C@H]1CN(CC(Cc2ccccc2)C(=O)NCCCC(N)=O)CC[C@@]1(C)c1cccc(O)c1` (stereo partly shown) [Example 63, 4-[[3-[4-(3-hydroxyphenyl)-3,4-dimethyl-1-piperidinyl]-2-(phenylmethyl)-1-oxopropyl]-amino]butanamide monohydrochloride] displayed an AD50 on opioid receptor of 26. Also, the Ki at mu receptor amounted to 2 nM. Further, the inhibition at 0.01 µM at mu receptor (setting [2]) turned out to be 89%. Further, the inhibition at 0.1 µM on mu receptor (setting [5]) worked out at 100%. Moreover, in assay [1], the “Ratio (AD50 mouse writhing test / ED50 mouse diarrhea test)” value is 90 and the median effective dose (ED50) came to 0.29 mg/kg.
For `CCNC(=O)CCCNC(=O)C(Cc1ccccc1)CN1CC[C@@](C)(c2cccc(O)c2)[C@@H](C)C1` (stereo partly shown) [Example 64, N-(ethyl)-4-[[3-4-(3-hydroxyphenyl)-3,4-dimethyl-1-piperidinyl]-2-(phenylmethyl)-1-oxopropyl]amino]butanamide monohydrochloride], at opioid receptor, the AD50 is > 40. This molecule had an inhibition constant Ki on mu receptor of 1.23 nM. On mu receptor (setting [2]), the inhibition at 0.01 µM stood at 94%. On mu receptor (setting [5]), the inhibition at 0.1 µM is 100%. Moreover, in assay [1], the “Ratio (AD50 mouse writhing test / ED50 mouse diarrhea test)” value was > 45 and the median effective dose (ED50) was found to be 0.9 mg/kg.
Regarding `CCOC(=O)CN(C)C(=O)C(Cc1ccccc1)CN1CC[C@@](C)(c2cccc(O)c2)[C@@H](C)C1` (stereo partly shown) [Example 65, [[2-[[4-(3-hydroxyphenyl)-3,4-dimethyl-1-piperidinyl]methyl]-1-oxo-3-phenylpropyl]-methylamino]acetic acid ethyl ester monohydrochloride], at opioid receptor, the AD50 was 2.8. Further, on mu receptor (20 min, 10 nM test compound, [3H] naloxone 0.5 nM, read-out: % displacement at 10 nM), the inhibition at 0.01 µM is 57%. Besides, the inhibition at 0.1 µM at mu receptor (20 min, 100 nM test compound, [3H] naloxone 0.5 nM, read-out: % displacement at 100 nM) came to 95%. In assay [1], the “Ratio (AD50 mouse writhing test / ED50 mouse diarrhea test)” value worked out at 3 and the ED50 is 0.92 mg/kg.
